Source: US20100040628A1 (OsteoGeneX, Inc, priority 2008, published 2010)

How the values were obtained:
C57BL/6 mice = assay: Bone growth with indoprofen: pQCT analysis on the femur after 30 days of daily treatment; type: in vivo, mouse; settings: four month old male C57BL/6 mice, 2 mg/kg i.p. daily for 30 days, FIG. 2
Method: Four month old male C57BL/6 mice were treated daily with saline vehicle or the sclerostin inhibitor of indoprofen at 2 mg/kg (via i.p) for 30 days. Study endpoints included measurement of trabecular bone mineral content and bone mineral density by pQCT analysis on the femur.

Wnt pathway = Wnt pathway modulation to promote bone growth (FIG. 1); settings: doses of 2.5 ng (low), 60 ng (medium), 125 ng (high) and 1250 ng (very high)
Method: (§1) For example, the mouse test animal is treated with a predetermined dose of a SOST antagonist candidate for a complete dosing schedule. A control mouse is treated with a control solution, preferably a non-irritating buffer solution or other carrier. Once the dosing schedule has been completed, both test and control animals are examined with sacrifice using micro-CT to determine the quantity of bone formation present.

mouse = assay: Mouse bone formation assay, micro-CT examination of test vs control animals; type: in vivo; settings: predetermined dose for a complete dosing schedule, vs control solution
Excerpt: Compounds useful in the methods of the present invention can be identified via a variety of methods known to one of skill in the art. Several exemplary methods for identifying such antagonists are described herein, including cell-based and in vitro techniques (Journal of Bone and Mineral Research 2006, 21(11), 1738-1749). A general method of identifying SOST antagonists involves evaluating the effects of antagonist candidates on bone formation under controlled conditions. Preferably bone formation is determined using micro-CT techniques on live animals. Preferred animals include rodents, more preferred are primates. Femur, tibia and vertebrae bones are particularly useful subjects for such study.
Briefly, the test animal is treated with a predetermined dose of a SOST antagonist candidate. […]
Once the dosing schedule has been completed, both test and control animals are examined to determine the quantity of bone formation present. […] Where necessary, levels of bone formation can be calculated by determining the volume of bone formation present in each animal. […]
as §1, with “A control mouse is treated with a control solution, preferably a non-irritating buffer solution or other carrier.” left out

**Q.** Which “increase for trabecular bone mineral density (BMD)” value (C57BL/6 mice; pQCT on femur) does the source give for CC(C(=O)O)c1ccc(N2Cc3ccccc3C2=O)cc1 (stereo not shown) [indoprofen] here?
**A.** greater than 2%

**Q.** What about the “increase in bone mineral content (BMC) for the femur over baseline controls” value (C57BL/6 mice; pQCT) of the same molecule?
**A.** greater than 6%

**Q.** And the “modulation of the Wnt pathway to promote bone growth” value (Wnt pathway)?
**A.** modulating the Wnt pathway to promote bone growth

**Q.** What about the “promotion of bone growth (quantity of bone formation by micro-CT)” value (mouse) of the same molecule?
**A.** promoting bone growth
